Here are results for two molecules from patent US20130079309A1, “Method Of Treating Acute Lung Injury Using Sphingosine 1 Phosphate Analogs Or Sphingosine 1 Phosphate Receptor Agonists” (The Board of Trustees of the University of Illinois, priority 2010, published 2013).

One data set concerns the target T1, S1P receptor 1 (S1PR1) (Mus musculus, UniProt O08530).
T1 construct: Lung homogenates were collected 14 days after bleomycin instillation; from tissue; host or cells: mouse lung (C57/BL6, bleomycin-injured)
Put plainly: S1PR1 levels in lung homogenates of bleomycin mice by Western blotting. Type of data set: in vivo. The settings on record: 14 days after bleomycin. On the procedure:
Lung homogenates were collected 14 days after bleomycin instillation. S1PR1 protein expression was determined by Western blotting (representative blots shown), quantified by densitometry, and normalized to actin concentration in the samples. Mean±S.D. is shown. N=2-3 animals per group.
As discussed above, (S)-FTY720-phosphonate maintains S1PR1 expression in mouse lungs after 24 hr relative to other S1PR1 agonists (FIG. 17). The data shown in FIG. 23 extend these observations to 14 days.
A general note: Immunoblotting shows a protein as a band on a membrane.

Another data set has as its system ERK. Briefly: Western blotting of HPAEC lysates for phospho-ERK. In kind it is cell-based, human. The settings on record: 5 min. As to the method:
(§1) After treatment as outlined for individual experiments, confluent HPAEC were lysed for Western blotting with phospho-MLC, pan-MLC, phospho-ERK, or pan-ERK antibodies. […] Membranes were then immunoblotted with primary antibodies (1:500-1000, 4° C., overnight) followed by secondary antibodies conjugated to horseradish peroxidase (1:5000, room temperature, 30 min) and detected with enhanced chemiluminescence (Pierce ECL or SuperSignal West Dura; Pierce Biotechnology, Rockford, Ill.) on Biomax MR film (Carestream Health, Rochester, N.Y.).

For data set [1], the system named is bleomycin-induced ALI in C57/BL6 mice. Put plainly: Murine model of bleomycin-induced ALI. The note with it: for animals alive by day 12 following bleomycin instillation: bleomycin 1.2 U/kg i.t.; for mice survived to 14 days: bleomycin + compound.
Description: C57/BL6 mice received bleomycin (1.2 U/kg) or sterile saline administered i.t. (intratracheally) and were then treated with FTY720, (S)-FTY720-phosphonate, (0.1 mg/kg i.p.) or PBS vehicle 3× a week until harvesting. Mice were followed for 14 days to assess mortality rates and multiple indices of lung injury.
Data set [2] has as its system HPAEC. Put plainly: Transwell transendothelial permeability assay (FITC-dextran). The note with it: 1 μM (3R, 3S 25 μM), 1 h before FITC-dextran, 2-h incubation. Type of data set: cell-based, human.
Description: As a complementary approach to further characterize the barrier-protective effects of these FTY720 analogs in vitro, the permeability of FITC-labeled dextran across the pulmonary EC monolayer was assayed in response to treatment by the FTY720 analogs. […] Data were normalized to unstimulated control. n=3 independent experiments per condition; *, p<0.01 versus unstimulated condition (see FIG. 26).
Data set [3] relates to HPAEC. Put plainly: Immunofluorescence of F-actin cytoskeletal rearrangement. Type of data set: cell-based, human. The settings on record: 1 μM, 5 min (FTY720 5 and 30 min). As to the method: Immunofluorescence was used to assess cytoskeletal rearrangements of […] cells in response to treatment with FTY720 analogs. Confluent HPAEC were stimulated with vehicle control or 1 μM S1P, 1R, 2R, or 3R for 5 min or with FTY720 (1 μM) for 30 min. EC were then fixed in 3.7% formaldehyde for 10 min, permeabilized with 0.25% Triton X-100 for 5 min, washed in PBS, blocked with 2% bovine serum albumin in Tris-buffered saline with Tween 20 for 1 h, and then incubated for 1 h at room temperature with the primary antibody of interest. After washing, EC were incubated with the appropriate secondary antibody conjugated to immunofluorescent dyes (or Texas Red-conjugated phalloidin for actin staining) for 1 h at room temperature. After further washing with Tris-buffered saline with Tween 20, coverslips were mounted using Prolong Anti-Fade Reagent (Invitrogen) and analyzed using a Nikon Eclipse TE2000 inverted microscope (Nikon, Melville, N.Y.).

Another data set concerns MLC. Briefly: Western blotting of HPAEC lysates for phospho-MLC. In kind it is cell-based, human. The settings on record: 5 min. On the procedure:
as §1

Data set [4] relates to HPAEC. Briefly: Intracellular calcium by Fura-2. The settings on record: 1 μM. In kind it is cell-based, human. As to the method:
To further explore the mechanistic differences in barrier regulation, intracellular calcium responses to the FTY720 analogs, S1P, and FTY720 were examined using Fura-2 (Harbeck et al., 2006, Sci STKE 2006: p16). HPAEC plated on 25-mm glass coverslips were loaded with 1 μM Fura-2/acetoxymethyl ester (Invitrogen, Carlsbad, Calif.) for 20 min at 37° C. in KRBH5 buffer (Krebs-Ringer-bicarbonate solution containing 119 mM NaCl, 4.7 mM KCl, 2.5 mM CaCl2, 1 mM MgCl2, 1 mM KH2PO4, 25 mM NaHCO3, mM HEPES-NaOH (pH 7.4), and 5 mM glucose). After replacement of the Fura-2 loading buffer with fresh KRBH5, coverslips were placed into the specimen stage of an inverted fluorescence microscope (Nikon TE-2000U). A Nikon Super Fluor 10× objective was used for these studies. Filters (340- and 380-nm excitation and 530-nm emission) were used for Fura-2 dual excitation ratio imaging. […] Fura-2 ratios were converted to [Ca^2+] using the equation: [Ca^2+]=(Kd′[(R−Rmin)/(Rmax−R)]×Sf/Sb) (Grynkiewicz et al., 1985, J Biol Chem 260: 3440-3450), where Kd′ is the dissociation constant for Fura-2 in the cytosol (225 nM) and Sf and Sb are the measured emission intensities at 380 nm for Ca^2+-free and Ca^2+-bound Fura-2, respectively. Data summaries for all Ca^2+ measurements are expressed as the means±S.E.
For orientation: Calcium assays in cells follow changes in intracellular calcium, usually with a dye or a luminescent sensor.

Data set [5] concerns bleomycin-induced ALI in C57/BL6 mice. The settings on record: Shea et al., 2010; cited from earlier work.
Data set [6] concerns LPS-induced lung injury in C57BL/6 mice. The settings on record: single intraperitoneal injection; Peng et al., 2004; cited from earlier work.

T1 sequence (O08530 whole entry): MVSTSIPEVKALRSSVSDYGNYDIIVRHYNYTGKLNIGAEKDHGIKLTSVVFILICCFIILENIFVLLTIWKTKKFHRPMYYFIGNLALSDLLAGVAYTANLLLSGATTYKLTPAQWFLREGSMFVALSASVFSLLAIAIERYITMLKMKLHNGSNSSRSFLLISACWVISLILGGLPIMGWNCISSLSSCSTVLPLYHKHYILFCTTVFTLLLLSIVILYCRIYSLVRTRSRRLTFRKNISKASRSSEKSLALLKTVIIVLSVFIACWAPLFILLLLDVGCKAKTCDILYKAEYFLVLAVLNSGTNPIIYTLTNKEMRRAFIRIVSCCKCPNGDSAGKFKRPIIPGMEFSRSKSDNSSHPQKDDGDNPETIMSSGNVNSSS

On to `CCCCCCCCc1ccc(CC[C@@](N)(CO)CCP(=O)(O)O)cc1` [1S, (S)-3-amino-3-(hydroxymethyl)-5-(4-octylphenyl)pentylphosphonic acid], for which the “S1PR1 levels in lungs, compared to FTY720-treated animals” value at S1P receptor 1 (S1PR1) was “higher levels of S1PR1”. In addition, in the data set on ERK, the ERK phosphorylation result is given as “failed to induce phosphorylation”. In data set [1] (0.1 mg/kg i.p. 3× a week), the “BAL protein after 14 days, compared to FTY720” value is given as “Decreased BAL protein” and the “animals alive by day 12 following bleomycin instillation” value turned out to be 83%. Further, the “mice survived to 14 days” value in [1] is on record as 5 out of 6.

For `CCCCCCCCc1ccc(CCC(N)(CO)CO)cc1` [FTY720, 2-amino-2-[2-(4-octylphenyl)ethyl]propane-1,3-diol], the “EC permeability to FITC-dextran vs control EC” value with HPAEC [2] was “significantly decreased permeability”. For the same molecule, the “cortical actin ring formation / F-actin rearrangement” value in the data set on HPAEC [3] is listed as “failed to elicit cortical actin ring formation”. In addition, in the data set on MLC, the MLC phosphorylation result is given as “Neither FTY720 nor any of its analogs induced significant MLC phosphorylation”. Besides, in the data set with HPAEC [4], the “intracellular calcium [Ca2+]i” value is recorded as “only S1P produced a transient Ca^2+ spike”. Moreover, the “lung injury and mortality in bleomycin-injured mice on prolonged exposure” value in data set [5] was “increased lung injury and mortality”. For the same molecule, the “murine LPS induced pulmonary injury, 24 hours after LPS” value in [6] was “attenuate murine LPS induced-pulmonary injury”. Besides, the “animals alive by day 12 following bleomycin instillation” value in data set [1] (0.1 mg/kg i.p. 3× a week) is reported as 17%. Moreover, the “mice survived to 14 days” value in data set [1] is reported as 1 out of the 6.
